# Assay results taken from US10131652B2, “Pyrimidinyloxy benzene derivatives as herbicides” (E. I. DU PONT DE NEMOURS AND COMPANY, priority 2014, dated 2018).
# Like-named read-outs stand apart in the source and are kept apart here.
# How the values were obtained:
# Type in all cases: in vivo
# [1] = test system: waterhemp (common waterhemp, Amaranthus rudis); assay: Test D pre-/postemergence plant response; conditions: Amaranthus tuberculatus; for pest or weed control at 62 g/ha: 62 g ai/ha; for pest or weed control at 125 g/ha: 125 g ai/ha
# Summary of the method: (§1)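 Pre-/post-emergence greenhouse test. Pre: seeded loam+sand, sprayed same day. Post: 1–4 leaf plants (2–18 cm), peat/vermiculite mix. Formulation: non-phytotoxic solvent + surfactant. Scored visually d13–15, 0–100 vs control.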
# [2] = test system: pigweed (Amaranthus retroflexus); assay: Test D pre-/postemergence plant response; conditions: Amaranthus retroflexus; for pest or weed control at 16 g/ha: 16 g ai/ha; for pest or weed control at 31 g/ha: 31 g ai/ha; for pest or weed control at 62 g/ha: 62 g ai/ha; for pest or weed control at 125 g/ha: 125 g ai/ha
# Summary of the method: as §1
# [3] = test system: Italian ryegrass (Lolium multiflorum); assay: Test D pre-/postemergence plant response; conditions: Lolium multiflorum; for pest or weed control at 16 g/ha: 16 g ai/ha; for pest or weed control at 31 g/ha: 31 g ai/ha; for pest or weed control at 62 g/ha: 62 g ai/ha; for pest or weed control at 125 g/ha: 125 g ai/ha
# Summary of the method: as §1
# [4] = test system: ragweed (common ragweed, Ambrosia elatior); assay: Test D pre-/postemergence plant response; conditions: Ambrosia artemisiifolia; for pest or weed control at 16 g/ha: 16 g ai/ha; for pest or weed control at 31 g/ha: 31 g ai/ha; for pest or weed control at 62 g/ha: 62 g ai/ha; for pest or weed control at 125 g/ha: 125 g ai/ha
# Summary of the method: as §1
# [5] = test system: soybean (Glycine max); assay: Test D pre-/postemergence plant response; conditions: Glycine max; for plant injury at 16 g/ha: 16 g ai/ha; for plant injury at 31 g/ha: 31 g ai/ha; for plant injury at 62 g/ha: 62 g ai/ha; for plant injury at 125 g/ha: 125 g ai/ha
# Summary of the method: as §1
# [6] = test system: chickweed (common chickweed, Stellaria media); assay: Test D postemergence plant response; conditions: Stellaria media, post-emergence
# Summary of the method: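 Plants grown in pots of peat moss–vermiculite medium with wetting agent and starter nutrients received postemergence applications of the formulated test chemicals at 2 to 18 cm height (1- to 4-leaf stage). After 13 to 15 days in a greenhouse, injury was scored visually against untreated controls, 0 (no effect) to 100 (complete control).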
# [7] = test system: galium (catchweed bedstraw, Galium aparine); assay: Test B postemergence plant response
# Summary of the method: (§2)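 Plants grown in pots of loam soil–sand blend were sprayed postemergence with formulated test chemicals at 2 to 10 cm height, one- to two-leaf stage. After about 10 days in a greenhouse, injury was visually rated against untreated controls on a 0 to 100 scale (0 no effect, 100 complete control).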
# [8] = test system: blackgrass (Alopecurus myosuroides); assay: Test B postemergence plant response
# Summary of the method: as §2
# [9] = post-emergence, Postemergence, scale 0 to 100, 0 no effect, 100 complete control, read-out: Plant response rating, Waterhemp
# [10] = post-emergence, Postemergence, scale 0 to 100 (0 no effect, 100 complete control), read-out: Pigweed plant response rating
# [11] = post-emergence, Postemergence, scale 0 to 100, 0 no effect, 100 complete control, read-out: Plant response rating, Pigweed
# [12] = pre-emergence, Preemergence, scale 0 to 100 (0 no effect, 100 complete control), read-out: Plant response rating, Pigweed
# [13] = post-emergence, Postemergence, scale 0 to 100 (0 no effect, 100 complete control), read-out: Ryegrass, Italian plant response rating
# [14] = post-emergence, Postemergence, scale 0 to 100, 0 no effect, 100 complete control, read-out: Plant response rating, Ryegrass, Italian
# [15] = pre-emergence, Preemergence, scale 0 to 100 (0 no effect, 100 complete control), read-out: Plant response rating, Ryegrass, Italian
# [16] = post-emergence, Postemergence, scale 0 to 100 (0 no effect, 100 complete control), read-out: Ragweed plant response rating
# [17] = post-emergence, Postemergence, scale 0 to 100, 0 no effect, 100 complete control, read-out: Plant response rating, Ragweed
# [18] = pre-emergence, Preemergence, scale 0 to 100 (0 no effect, 100 complete control), read-out: Plant response rating, Ragweed
# [19] = post-emergence, Postemergence, scale 0 to 100 (0 no effect, 100 complete control), read-out: Soybean plant response rating
# [20] = post-emergence, Postemergence, scale 0 to 100, 0 no effect, 100 complete control, read-out: Plant response rating, Soybean
# [21] = pre-emergence, Preemergence, scale 0 to 100 (0 no effect, 100 complete control), read-out: Plant response rating, Soybean
# [22] = 125 g ai/ha, postemergence, 0 to 100 scale, 0 no effect, 100 complete control
# [23] = Postemergence, 500 g ai/ha, 0 to 100 scale (0 no effect, 100 complete control)
structure (smiles),measurement,setting,value
"FC(F)c1cc(-c2ccccc2Oc2ncc(Cl)cn2)on1 [Compound 53, 5-chloro-2-[2-[3-(difluoromethyl)-5-isoxazolyl]phenoxy]pyrimidine]",pest or weed control at 62 g/ha,[1]; [9],90%
same,pest or weed control at 125 g/ha,[1]; [9],100%
same,pest or weed control at 125 g/ha,"[1]; pre-emergence, Preemergence, read-out: Plant response rating (scale 0 to 100), Waterhemp",100%
same,pest or weed control at 16 g/ha,"[1]; pre-emergence, Preemergence, 16 g ai/ha, scale 0 to 100 (0 no effect, 100 complete control), read-out: Plant response rating, Waterhemp",100%
same,pest or weed control at 31 g/ha,"[1]; pre-emergence, Preemergence, 31 g ai/ha, scale 0 to 100 (0 no effect, 100 complete control), read-out: Plant response rating, Waterhemp",100%
same,pest or weed control at 62 g/ha,"[1]; pre-emergence, Preemergence, scale 0 to 100 (0 no effect, 100 complete control), read-out: Plant response rating, Waterhemp",100%
same,pest or weed control at 16 g/ha,[2]; [10],85%
same,pest or weed control at 31 g/ha,[2]; [10],90%
same,pest or weed control at 62 g/ha,[2]; [11],90%
same,pest or weed control at 125 g/ha,[2]; [11],100%
same,pest or weed control at 125 g/ha,"[2]; pre-emergence, Preemergence, read-out: Plant response rating (scale 0 to 100), Pigweed",100%
same,pest or weed control at 16 g/ha,[2]; [12],95%
same,pest or weed control at 31 g/ha,[2]; [12],100%
same,pest or weed control at 62 g/ha,[2]; [12],100%
same,pest or weed control at 16 g/ha,[3]; [13],0%
same,pest or weed control at 31 g/ha,[3]; [13],5%
same,pest or weed control at 62 g/ha,[3]; [14],5%
same,pest or weed control at 125 g/ha,[3]; [14],5%
same,pest or weed control at 125 g/ha,"[3]; pre-emergence, Preemergence, read-out: Plant response rating (scale 0 to 100), Ryegrass, Italian",60%
same,pest or weed control at 16 g/ha,[3]; [15],0%
same,pest or weed control at 31 g/ha,[3]; [15],10%
same,pest or weed control at 62 g/ha,[3]; [15],15%
same,pest or weed control at 16 g/ha,[4]; [16],50%
same,pest or weed control at 31 g/ha,[4]; [16],50%
same,pest or weed control at 62 g/ha,[4]; [17],55%
same,pest or weed control at 125 g/ha,[4]; [17],55%
same,pest or weed control at 125 g/ha,"[4]; pre-emergence, Preemergence, read-out: Plant response rating (scale 0 to 100), Ragweed",85%
same,pest or weed control at 16 g/ha,[4]; [18],0%
same,pest or weed control at 31 g/ha,[4]; [18],40%
same,pest or weed control at 62 g/ha,[4]; [18],55%
same,plant injury at 16 g/ha,[5]; [19],60%
same,plant injury at 31 g/ha,[5]; [19],90%
same,plant injury at 62 g/ha,[5]; [20],95%
same,plant injury at 125 g/ha,[5]; [20],98%
same,plant injury at 125 g/ha,"[5]; pre-emergence, Preemergence, read-out: Plant response rating (scale 0 to 100), Soybean",80%
same,plant injury at 16 g/ha,[5]; [21],0%
same,plant injury at 31 g/ha,[5]; [21],25%
same,plant injury at 62 g/ha,[5]; [21],55%
same,pest or weed control at 16 g/ha,"[6]; 16 g ai/ha, scale 0 to 100 (0 no effect, 100 complete control), read-out: Chickweed plant response rating",50%
same,pest or weed control at 31 g/ha,"[6]; 31 g ai/ha, scale 0 to 100 (0 no effect, 100 complete control), read-out: Chickweed plant response rating",80%
same,pest or weed control at 62 g/ha,"[6]; 62 g ai/ha, scale 0 to 100, 0 no effect, 100 complete control, read-out: Plant response rating, Chickweed",80%
same,pest or weed control at 125 g/ha,"[6]; 125 g ai/ha, scale 0 to 100, 0 no effect, 100 complete control, read-out: Plant response rating, Chickweed",90%
same,"Plant response rating, Galium",[7]; [22],100
same,"Plant response rating, Galium",[7]; [23],100
same,"Plant response rating, Blackgrass",[8]; [22],100
same,"Plant response rating, Blackgrass",[8]; [23],100
